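Following 48 hours of exposure in 96-well plates, responses at five concentrations were used to interpolate endpoints linearly. TGI marks complete inhibition of growth.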 A value given as a limit tells only on which side of the number the result lay.

Among the test systems are MDA-N; EKVX NSCLC; DU-145 prostate; SW-620 colon; SK-MEL-28 melanoma; 786-0 renal; NCI-H226 lung; OVCAR-4 ovarian; SF-268 CNS; UO-31 renal; NCI-H522 lung; SF-295 CNS; RXF 393 renal; HCT-116 colon; HOP-62 NSCLC; A498 renal; MALME-3M melanoma; KM12 colon; CAKI-1 renal; SK-MEL-2 melanoma.
Experiment in all cases: NCI-60 cell line screen, 48 h

Turning to `O=C(NNC(=O)c1ccccc1O)c1cccc(Br)c1`, the TGI in the test on MDA-N, in the test on EKVX NSCLC, in the test with DU-145 prostate, in the test on SW-620 colon, with SK-MEL-28 melanoma and with 786-0 renal was greater than 100 µM each time. For the same compound, the TGI in the test on NCI-H226 lung was greater than 100 µM; with OVCAR-4 ovarian, greater than 100 µM; in the test on SF-268 CNS, greater than 100 µM; in the test on UO-31 renal, greater than 100 µM; in the test with NCI-H522 lung, 83.3 µM; with SF-295 CNS, greater than 100 µM. The TGI in the test with RXF 393 renal, in the test with HCT-116 colon, in the test on HOP-62 NSCLC, in the test on A498 renal, in the test on MALME-3M melanoma and with KM12 colon was greater than 100 µM throughout. The TGI with CAKI-1 renal and in the test on SK-MEL-2 melanoma was greater than 100 µM throughout.
Take `COc1cccc(C2c3cc4c(cc3OC(C)(N3CCCC3)C2C)OCO4)c1` (stereo not given): the TGI is 4.02 µM in the test with MDA-N; 92.1 µM in the test on EKVX NSCLC; 49.6 µM in the test with DU-145 prostate; greater than 100 µM in the test on SW-620 colon; greater than 100 µM in the test on SK-MEL-28 melanoma; greater than 100 µM with 786-0 renal. Besides, the TGI in the test with NCI-H226 lung is 27.3 µM; with OVCAR-4 ovarian, 75 µM; in the test on SF-268 CNS, greater than 100 µM; in the test on UO-31 renal it was 39.9 µM; with NCI-H522 lung, 5.7 µM; in the test with SF-295 CNS, 73.9 µM. The TGI with RXF 393 renal is 51.9 µM; with HCT-116 colon it was 26.6 µM; in the test with HOP-62 NSCLC it was 20.6 µM; in the test on A498 renal, 85.3 µM; with MALME-3M melanoma, 64.7 µM; in the test on KM12 colon, 17.8 µM. Also, the figures for the TGI in the test with CAKI-1 renal and in the test with SK-MEL-2 melanoma were 59.8 µM and 11.2 µM, respectively.
Turning to `CC(C)=CCC/C(C)=C/CC/C(C)=C/CC(CO)N(C)CC/C=C(\C)CCC=C(C)C` (stereo not given), the TGI was determined as 12.4 µM in the test with MDA-N; 23.4 µM in the test with EKVX NSCLC; 23.7 µM in the test with DU-145 prostate; 13.7 µM in the test with SW-620 colon; 14.4 µM in the test with SK-MEL-28 melanoma; 4.89 µM with 786-0 renal. Further, the TGI with NCI-H226 lung stood at 28.4 µM; with OVCAR-4 ovarian, 22.4 µM; in the test on SF-268 CNS it was 26.7 µM; in the test with UO-31 renal it was 17.9 µM; in the test on NCI-H522 lung, 3.89 µM; in the test on SF-295 CNS, 19.9 µM. The TGI in the test on RXF 393 renal was 12.8 µM; in the test with HCT-116 colon it was 6.46 µM; in the test with HOP-62 NSCLC, 15 µM; with A498 renal, 28.4 µM; in the test on MALME-3M melanoma, 8.75 µM; in the test on KM12 colon it was 14.5 µM. The values for the TGI in the test with CAKI-1 renal and in the test with SK-MEL-2 melanoma were 19.2 µM and 28.6 µM, respectively.
On to `CC(=O)OCC1OC(OC2CC3C(C)(C)C(O)CC[C@]3(C)C3CCC45CC4(CCC5[C@@H](C)CC(O)C(O)C(C)(C)O)[C@]23C)C(O)C(O)C1O` (stereo not given in full), for which the TGI with MDA-N, in the test on EKVX NSCLC, with DU-145 prostate, in the test on SW-620 colon, in the test on SK-MEL-28 melanoma and with 786-0 renal was greater than 10 µM throughout. The TGI in the test on NCI-H226 lung, with OVCAR-4 ovarian, in the test with SF-268 CNS, with UO-31 renal, in the test with NCI-H522 lung and in the test with SF-295 CNS was greater than 10 µM each time. Moreover, the TGI with RXF 393 renal, with HCT-116 colon, in the test on HOP-62 NSCLC, in the test with A498 renal, in the test on MALME-3M melanoma and in the test with KM12 colon was greater than 10 µM in each case. For the same compound, the TGI with CAKI-1 renal and in the test with SK-MEL-2 melanoma was greater than 10 µM each time.
`O=C(O)CCSC(CC1(c2ccc(Cl)cc2)NC(=O)CCS1)c1ccccc1` (stereo not given): the TGI with MDA-N is 31.8 µM; with EKVX NSCLC, 46.9 µM; in the test with DU-145 prostate, greater than 53.8 µM; in the test on SW-620 colon, 41.7 µM; in the test with SK-MEL-28 melanoma, 37.7 µM; with 786-0 renal, 20.9 µM. Moreover, the TGI in the test with NCI-H226 lung was 40.8 µM; with OVCAR-4 ovarian, 29.3 µM; in the test on SF-268 CNS, 38.4 µM; in the test on UO-31 renal it was greater than 54.8 µM; in the test with NCI-H522 lung, 41.7 µM; with SF-295 CNS it was 43.2 µM. Besides, the TGI in the test on RXF 393 renal is greater than 54.8 µM; with HCT-116 colon, 17.4 µM; in the test on HOP-62 NSCLC it was 44.1 µM; with A498 renal, 42.9 µM; in the test with MALME-3M melanoma it was 41.6 µM; in the test on KM12 colon, 14.1 µM. In addition, the TGI in the test on CAKI-1 renal amounted to 37.3 µM; with SK-MEL-2 melanoma it was 38.7 µM.
`CC1OC(OC2C(OC(=O)[C@]34CCC(C)(C)C[C@H]3C3=CC[C@@H]5[C@@]6(C)CC[C@H](OC7OC(CO)C(O)C(O)C7OC7OC(CO)C(O)C(O)C7O)C(C)(C)[C@@H]6CC[C@@]5(C)[C@]3(C)CC4)OCC(O)C2O)C(O)C(OC2OCC(O)C(O)C2O)C1OC1OCC(O)C(OC2OCC(O)C(O)C2O)C1O` (stereo not given in full): the TGI with MDA-N was 5.77 µM; in the test on EKVX NSCLC, 17.1 µM; with DU-145 prostate it was 38.3 µM; with SW-620 colon, greater than 55.6 µM; with SK-MEL-28 melanoma, 4.85 µM; with 786-0 renal it was 62.6 µM. Besides, the TGI is 24.7 µM in the test on NCI-H226 lung; greater than 61.6 µM with OVCAR-4 ovarian; 33.1 µM with SF-268 CNS; 4.98 µM in the test on UO-31 renal; 9.56 µM in the test on NCI-H522 lung; 21.4 µM in the test with SF-295 CNS. Besides, the TGI with RXF 393 renal is 55.5 µM; with HCT-116 colon, greater than 100 µM; with HOP-62 NSCLC, 29.6 µM; in the test with A498 renal it was 5.11 µM; in the test on MALME-3M melanoma, 18.3 µM; in the test with KM12 colon, 21.8 µM. Further, the TGI in the test on CAKI-1 renal amounted to 21.8 µM; in the test on SK-MEL-2 melanoma, 24.1 µM.

These data come from PubChem BioAssay (NCI).
